Key:
[1] = biological target: T1, recombinant BRD4 (BD1 + BD2) (Homo sapiens, UniProt O60885); experiment: BRD4 TR-FRET activity assay; format: binding; conditions: 1 μmol/L; read-out: BRD4 inhibition rate;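 also: signal rises with BET ligand binding to the bromodomains, so inhibitors lower it, 120 min incubation at room temperature, 1% DMSO, wells lacking ligand as negative control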
T1 construct: employing a recombinant BRD4 (BD1 + BD2) and its corresponding ligand
Protocol: The BRD4 activity assay utilized TR-FRET technology, employing a recombinant BRD4 (BD1 + BD2) and its corresponding ligand. The TR-FRET signal generated in the assay is proportional to the ligand’s binding to the bromodomains. All reactions contained a final DMSO concentration of 1%. All binding reactions were conducted at room temperature. Each 20 µL reaction mixture, in assay buffer, comprised bromodomains, the BET Ligand, and the specified inhibitor amount. For the negative control, 5 µL of assay buffer replaced the BET ligand. After a 120-min incubation with the ligand, the TR-FRET signal was captured using a Tecan Infinite M1000 plate reader. IC50 values were determined through nonlinear regression with a normalized dose-response fit in Prism GraphPad software.

inhibition at 1 µM [1] [%]	melting point [°C]	SMILES
55		Cc1ccc(CS(=O)(=O)Nc2cc(Cc3n[nH]c(=O)c4ccccc34)cc(-c3c(C)noc3C)c2)cc1 [DDT78]
11		Cc1noc(C)c1-c1cc(Cc2n[nH]c(=O)c3ccccc23)cc(C(=O)NC2CCOCC2)c1 [DDT08]
51	148 to 149	CCCc1ccc(S(=O)(=O)Nc2cc(Cc3n[nH]c(=O)c4ccccc34)cc(-c3c(C)noc3C)c2)cc1 [DDT63]
3		Cc1noc(C)c1-c1cc(Cc2n[nH]c(=O)c3ccccc23)cc(NCc2ccc(F)cc2)c1 [DDT35]
54		Cc1noc(C)c1-c1cc(Cc2n[nH]c(=O)c3ccccc23)cc(NC(=O)c2ccc(C(F)(F)F)cc2)c1 [DDT28]
32	140 to 141	Cc1noc(C)c1-c1cc(Cc2n[nH]c(=O)c3ccccc23)cc(NS(=O)(=O)C2CC2)c1 [DDT55]
8	171 to 172	Cc1noc(C)c1-c1cc(Cc2n[nH]c(=O)c3ccccc23)cc(NS(=O)(=O)c2ccccc2Br)c1 [DDT91]
50		Cc1noc(C)c1-c1cc(Cc2n[nH]c(=O)c3ccccc23)cc(NS(=O)(=O)Cc2ccccc2)c1 [DDT76]
65	> 250	Cc1noc(C)c1-c1cc(Cc2n[nH]c(=O)c3ccccc23)cc(NC(=O)c2cccc([N+](=O)[O-])c2)c1 [DDT29]
69	195 to 196	CCS(=O)(=O)Nc1cc(Cc2n[nH]c(=O)c3ccccc23)cc(-c2c(C)noc2C)c1 [DDT50]
4	192 to 193	CC(=O)Nc1cccc(S(=O)(=O)Nc2cc(Cc3n[nH]c(=O)c4ccccc34)cc(-c3c(C)noc3C)c2)c1 [DDT72]
15	197 to 198	Cc1noc(C)c1-c1cc(Cc2n[nH]c(=O)c3ccccc23)cc(NS(=O)(=O)c2ccccc2C(F)(F)F)c1 [DDT80]
16	154 to 155	Cc1noc(C)c1-c1cc(Cc2n[nH]c(=O)c3ccccc23)cc(C(=O)N2CCN(C(=O)C3CC3)CC2)c1 [DDT17]
4		Cc1noc(C)c1-c1cc(Cc2n[nH]c(=O)c3ccccc23)cc(NS(=O)(=O)c2ccc(Cl)cc2Cl)c1 [DDT90]
3		Cc1cccc(CNc2cc(Cc3n[nH]c(=O)c4ccccc34)cc(-c3c(C)noc3C)c2)c1 [DDT44]
67	> 250	Cc1noc(C)c1-c1cc(Cc2n[nH]c(=O)c3ccccc23)cc(C(=O)NC2CCCC2)c1 [DDT03]
72	174 to 175	Cc1noc(C)c1-c1cc(Cc2n[nH]c(=O)c3ccccc23)cc(NS(=O)(=O)c2ccccc2Cl)c1 [DDT87]
34	148 to 149	Cc1noc(C)c1-c1cc(Cc2n[nH]c(=O)c3ccccc23)cc(NS(=O)(=O)c2ccc(OCc3ccccc3)cc2)c1 [DDT74]
35	192 to 193	Cc1noc(C)c1-c1cc(Cc2n[nH]c(=O)c3ccccc23)cc(C(=O)Nc2ccccc2)c1 [DDT05]
8		Cc1noc(C)c1-c1cc(Cc2n[nH]c(=O)c3ccccc23)cc(NCc2ccc([N+](=O)[O-])cc2)c1 [DDT37]
11	157 to 158	Cc1noc(C)c1-c1cc(Cc2n[nH]c(=O)c3ccccc23)cc(C(=O)N2CCC[C@H](O)C2)c1 [DDT19]

inhibition at 1 µM [1] [%]	melting point [°C]	SMILES
28		Cc1noc(C)c1-c1cc(Cc2n[nH]c(=O)c3ccccc23)cc(NS(=O)(=O)c2ccc([N+](=O)[O-])cc2)c1 [DDT83]
24	193 to 194	Cc1noc(C)c1-c1cc(Cc2n[nH]c(=O)c3ccccc23)cc(NS(=O)(=O)c2ccc(C(F)(F)F)cc2)c1 [DDT82]
64	173 to 174	Cc1noc(C)c1-c1cc(Cc2n[nH]c(=O)c3ccccc23)cc(NC(=O)c2ccccc2)c1 [DDT22]
38		CC(=O)Nc1ccc(S(=O)(=O)Nc2cc(Cc3n[nH]c(=O)c4ccccc34)cc(-c3c(C)noc3C)c2)cc1 [DDT73]
14		Cc1noc(C)c1-c1cc(Cc2n[nH]c(=O)c3ccccc23)cc(NS(=O)(=O)c2ccccc2F)c1 [DDT84]
38	241 to 243	Cc1noc(C)c1-c1cc(Cc2n[nH]c(=O)c3ccccc23)cc(C(=O)N2CCC(=O)C2)c1 [DDT12]
44	154 to 155	Cc1noc(C)c1-c1cc(Cc2n[nH]c(=O)c3ccccc23)cc(NS(=O)(=O)c2ccc(C(C)(C)C)cc2)c1 [DDT65]
4	147 to 148	Cc1noc(C)c1-c1cc(Cc2n[nH]c(=O)c3ccccc23)cc(NS(=O)(=O)c2cccc(Br)c2)c1 [DDT92]
6	147 to 148	CCCCS(=O)(=O)Nc1cc(Cc2n[nH]c(=O)c3ccccc23)cc(-c2c(C)noc2C)c1 [DDT52]
74		Cc1noc(C)c1-c1cc(Cc2n[nH]c(=O)c3ccccc23)cc(NC(=O)c2ccc([N+](=O)[O-])cc2)c1 [DDT30]
9	181 to 182	COCCS(=O)(=O)Nc1cc(Cc2n[nH]c(=O)c3ccccc23)cc(-c2c(C)noc2C)c1 [DDT53]
37	161 to 162	Cc1noc(C)c1-c1cc(Cc2n[nH]c(=O)c3ccccc23)cc(C(=O)N2CCn3nc(C(F)(F)F)nc3C2)c1 [DDT18]
54	188 to 189	Cc1noc(C)c1-c1cc(Cc2n[nH]c(=O)c3ccccc23)cc(NC(=O)c2ccc(N)cc2)c1 [DDT32]
20		Cc1noc(C)c1-c1cc(Cc2n[nH]c(=O)c3ccccc23)cc(NS(=O)(=O)c2cccc(C(F)(F)F)c2)c1 [DDT81]
59		Cc1noc(C)c1-c1cc(Cc2n[nH]c(=O)c3ccccc23)cc(C(=O)N2CCNCC2)c1 [DDT15]
7	151 to 152	Cc1noc(C)c1-c1cc(Cc2n[nH]c(=O)c3ccccc23)cc(NS(=O)(=O)c2ccc(F)cc2)c1 [DDT86]
4	165 to 166	CCCS(=O)(=O)Nc1cc(Cc2n[nH]c(=O)c3ccccc23)cc(-c2c(C)noc2C)c1 [DDT51]
59	184 to 185	COc1cccc(S(=O)(=O)Nc2cc(Cc3n[nH]c(=O)c4ccccc34)cc(-c3c(C)noc3C)c2)c1 [DDT68]
24		Cc1noc(C)c1-c1cc(Cc2n[nH]c(=O)c3ccccc23)cc(NS(=O)(=O)C2CCCCC2)c1 [DDT56]
49		Cc1ccc(S(=O)(=O)Nc2cc(Cc3n[nH]c(=O)c4ccccc34)cc(-c3c(C)noc3C)c2)cc1C [DDT61]
8		Cc1ccc(S(=O)(=O)Nc2cc(Cc3n[nH]c(=O)c4ccccc34)cc(-c3c(C)noc3C)c2)cn1 [DDT66]

inhibition at 1 µM [1] [%]	melting point [°C]	SMILES
36	199 to 200	Cc1noc(C)c1-c1cc(Cc2n[nH]c(=O)c3ccccc23)cc(C(=O)N[C@H]2CC[C@H](O)CC2)c1 [DDT10]
15		Cc1noc(C)c1-c1cc(Cc2n[nH]c(=O)c3ccccc23)cc(C(N)=O)c1 [DDT01]
3		Cc1noc(C)c1-c1cc(Cc2n[nH]c(=O)c3ccccc23)cc(NS(=O)(=O)C(C)C)c1 [DDT54]
17	142 to 143	Cc1noc(C)c1-c1cc(Cc2n[nH]c(=O)c3ccccc23)cc(NS(=O)(=O)c2cccc(Cl)c2)c1 [DDT88]
3	229 to 230	Cc1noc(C)c1-c1cc(Cc2n[nH]c(=O)c3ccccc23)cc(NCc2cccc([N+](=O)[O-])c2)c1 [DDT36]
17	200 to 201	Cc1noc(C)c1-c1cc(Cc2n[nH]c(=O)c3ccccc23)cc(NCc2ccc(Br)cc2)c1 [DDT41]
26		Cc1noc(C)c1-c1cc(Cc2n[nH]c(=O)c3ccccc23)cc(NS(=O)(=O)c2ccc(Br)cc2)c1 [DDT93]
71	236 to 237	Cc1noc(C)c1-c1cc(Cc2n[nH]c(=O)c3ccccc23)cc(NC(=O)c2cccc(N)c2)c1 [DDT31]
3		Cc1noc(C)c1-c1cc(Cc2n[nH]c(=O)c3ccccc23)cc(NCc2cccc(F)c2)c1 [DDT34]
4		Cc1noc(C)c1-c1cc(Cc2n[nH]c(=O)c3ccccc23)cc(C(=O)NC2CCS(=O)(=O)CC2)c1 [DDT09]
36		Cc1noc(C)c1-c1cc(Cc2n[nH]c(=O)c3ccccc23)cc(NS(=O)(=O)c2ccccc2)c1 [DDT57]
69		Cc1noc(C)c1-c1cc(Cc2n[nH]c(=O)c3ccccc23)cc(NS(=O)(=O)c2ccc(C(C)C)cc2)c1 [DDT64]
67		Cc1noc(C)c1-c1cc(Cc2n[nH]c(=O)c3ccccc23)cc(NS(=O)(=O)c2ccc3c(c2)OCCO3)c1 [DDT71]
5		Cc1noc(C)c1-c1cc(Cc2n[nH]c(=O)c3ccccc23)cc(NS(=O)(=O)c2cccc(F)c2)c1 [DDT85]
3		Cc1noc(C)c1-c1cc(Cc2n[nH]c(=O)c3ccccc23)cc(NCc2ccc(Br)cc2F)c1 [DDT42]
24		COc1ccccc1S(=O)(=O)Nc1cc(Cc2n[nH]c(=O)c3ccccc23)cc(-c2c(C)noc2C)c1 [DDT67]
71		Cc1noc(C)c1-c1cc(Cc2n[nH]c(=O)c3ccccc23)cc(C(=O)N2CC[C@@H](O)C2)c1 [DDT13]
4		Cc1noc(C)c1-c1cc(Cc2n[nH]c(=O)c3ccccc23)cc(C(=O)NCc2ccccc2)c1 [DDT06]
4		Cc1noc(C)c1-c1cc(Cc2n[nH]c(=O)c3ccccc23)cc(C(=O)N2CCC[C@@H](O)C2)c1 [DDT20]
71		Cc1cccc(S(=O)(=O)Nc2cc(Cc3n[nH]c(=O)c4ccccc34)cc(-c3c(C)noc3C)c2)c1 [DDT58]

SMILES	inhibition at 1 µM [1] [%]	melting point [°C]
Cc1noc(C)c1-c1cc(Cc2n[nH]c(=O)c3ccccc23)cc(NCc2cccc(Cl)c2)c1 [DDT38]	8	235 to 236
